Experimental data: patent US20130095038A1, “PARTICLES, AND PHOTOACOUSTIC IMAGING CONTRAST AGENT AND SLN CONTRAST AGENT INCLUDING THE PARTICLES” (CANON KABUSHIKI KAISHA, priority 2011, published 2013)

Tested on: mouse popliteal lymph nodes
Assay: Evaluation of accumulation in SLN
Format: in vivo
Experimental: Migration to SLN was evaluated using mouse popliteal lymph nodes. A probe was administered to a mouse from the sole of the hindlimb, and accumulation in the popliteal lymph nodes was evaluated as a model of evaluation of accumulation in SLN. Ten microliters of a sample was subcutaneously administered to a mouse from the sole of the hindlimb, and after 24 hours, mouse popliteal lymph nodes were harvested. The harvested mouse popliteal lymph nodes were crushed, and the absorbance of the extract from the crushed lymph nodes was measured. The accumulation rate was calculated based on the following expression:
Accumulation rate=[(absorbance of the extracted mouse popliteal lymph nodes)/(absorbance of the sample in an amount equivalent to the administered amount)]×100.
The accumulation ratios, to SLN, of the photoacoustic imaging contrast agents prepared in Examples B1 to B6 and reagents prepared in Comparative Examples B1 and B2 were calculated according to the above-described evaluation examples for accumulation in SLN. In Table B1, the accumulation ratio means an accumulation rate of each photoacoustic imaging contrast agent or the ICG-albumin complex when the accumulation rate of the ICG aqueous solution used in Comparative Example B1 is assumed as 1.

**Q.** What does the source list for CC1(C)C(/C=C/C=C/C=C/C=C2/N(CCCCS(=O)(=O)[O-])c3ccc4ccccc4c3C2(C)C)=[N+](CCCCS(=O)(=O)[O-])c2ccc3ccccc3c21.[Na+] [ICG, indocyanine green]?
**A.** Accumulation ratio (accumulation rate relative to ICG aqueous solution = 1, 10 μL subcutaneous, sole of hindlimb, 24 hours, absorbance at 790 or 800 nm): 1; Accumulation in SLN (in words) (mouse, in vivo): low
